Assay [1] has as its target T1, NLRP3 (Homo sapiens, UniProt Q96P20). The assay can be described thus: Human whole blood IL1β release assay. As to conditions: LPS 1 μg/ml, nigericin 10 μM, IL-1β AlphaLisa, 10 μM top dose (Example 2: top dose of 30 μM), read-out: HWB IC50. It counts as cell-based. Here is the method: For systemic delivery, the ability to inhibit NLRP3 when the compounds are present within the bloodstream is of great importance. For this reason, the NLRP3 inhibitory activity of a number of compounds in human whole blood was investigated in accordance with the following protocol.
Human whole blood in sodium-heparin or lithium-heparin tubes was obtained from healthy donors from a volunteer donor panel. • 1. Plate out 80 μl of whole blood containing 1 μg/ml of LPS in 96-well, clear bottom cell culture plate (Corning #3585) • 2. Add 10 μl compound (8 points half-log dilution with 10 μM top dose, unless stated otherwise) or vehicle (DMSO 0.1% FAC) to the appropriate wells • 3. Incubate for 3 hrs at 37° C., 5% CO2 • 4. Add 10 μl nigericin (Sigma #N7143) (10 μM FAC) to all wells • 5. Incubate for 1 hr at 37° C., 5% CO2 • 6. At the end of the incubation period, spin plates at 300×g for 5 mins to pellet cells and remove 20 μl of supernatant and add to 96-well v-bottom plates for IL-1β analysis (note: these plates containing the supernatants can be stored at −80° C. to be analysed at a later date) • 7. IL-1β was measured according to the manufacturer protocol (Perkin Elmer-AlphaLisa IL-1 Kit AL220F-5000) • 8. IC50 data is fitted to a non-linear regression equation (log inhibitor vs response-variable slope 4-parameters)
In general terms: Alpha assays give light when donor and acceptor beads are brought close together.

Assay [2] deals with T1, NLRP3. The assay can be described thus: THP-1 cells pyroptosis assay. Format: cell-based. Further details: Seed THP-1 cells (25,000 cells/well) containing 1.0 μg/ml LPS; host or cells: THP-1. The following applies: LPS 1.0 μg/ml, nigericin 5 μM, resazurin readout, 10 μM top dose (Example 2: top dose of 30 μM). In short, it runs like this: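 THP-1 cells (25,000/well) primed with 1 μg/ml LPS in serum-free RPMI, treated with compound (8-point dilution, 10 μM top unless stated; 0.1% DMSO) 3 h at 37°C, then nigericin 5 μM 1 h. Viability read by resazurin (100 μM, 1-2 h) fluorescence; IC50 from 4-parameter fit.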

As a reminder, the IC50 is the concentration at which inhibition is half-maximal.

Bounds are passed on as bounds.

T1 sequence (Q96P20 whole entry): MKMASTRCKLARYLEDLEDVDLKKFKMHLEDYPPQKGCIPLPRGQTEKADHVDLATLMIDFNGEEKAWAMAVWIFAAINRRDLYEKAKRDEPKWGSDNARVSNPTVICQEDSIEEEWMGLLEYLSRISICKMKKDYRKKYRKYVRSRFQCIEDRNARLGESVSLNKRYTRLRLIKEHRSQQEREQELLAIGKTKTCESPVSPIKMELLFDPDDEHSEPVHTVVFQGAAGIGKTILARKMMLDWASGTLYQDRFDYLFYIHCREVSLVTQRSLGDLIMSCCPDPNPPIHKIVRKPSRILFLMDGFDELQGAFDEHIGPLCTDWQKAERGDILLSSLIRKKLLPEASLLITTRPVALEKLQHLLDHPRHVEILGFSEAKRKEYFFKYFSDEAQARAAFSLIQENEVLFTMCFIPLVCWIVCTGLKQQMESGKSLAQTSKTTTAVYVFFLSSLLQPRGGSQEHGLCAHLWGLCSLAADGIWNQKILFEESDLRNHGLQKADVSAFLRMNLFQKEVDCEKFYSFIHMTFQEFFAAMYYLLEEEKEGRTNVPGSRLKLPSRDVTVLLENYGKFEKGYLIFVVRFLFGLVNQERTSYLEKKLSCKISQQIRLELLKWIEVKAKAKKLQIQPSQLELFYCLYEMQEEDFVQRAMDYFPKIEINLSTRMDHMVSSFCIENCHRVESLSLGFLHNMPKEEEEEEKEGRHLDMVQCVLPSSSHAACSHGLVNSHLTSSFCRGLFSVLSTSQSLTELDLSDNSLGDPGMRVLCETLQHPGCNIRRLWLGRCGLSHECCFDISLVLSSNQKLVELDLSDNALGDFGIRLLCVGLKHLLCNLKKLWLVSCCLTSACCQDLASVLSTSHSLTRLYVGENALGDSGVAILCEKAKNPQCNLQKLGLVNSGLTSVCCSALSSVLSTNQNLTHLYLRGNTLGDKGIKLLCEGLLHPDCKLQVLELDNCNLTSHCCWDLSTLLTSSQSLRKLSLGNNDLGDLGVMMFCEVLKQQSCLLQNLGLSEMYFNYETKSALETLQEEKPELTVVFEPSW

With `COC1(c2cc(S(=O)(=O)c3nnc(Nc4c5c(cc6c4CCC6)CCC5)[nH]3)nn2C)COC1` [Example 12, N-(1,2,3,5,6,7-hexahydro-s-indacen-4-yl)-5-((5-(3-methoxyoxetan-3-yl)-1-methyl-1H-pyrazol-3-yl)sulfonyl)-4H-1,2,4-triazol-3-amine], the values for the half-inhibitory concentration (IC50) on NLRP3 [1] and against NLRP3 [2] were no more than 10 µM and no more than 1000 nM, respectively.

With `CNC[C@H]1CCN(S(=O)(=O)c2nnc(Nc3c4c(cc5c3CCC5)CCC4)[nH]2)C1` [Example 288, (R)—N-(1,2,3,5,6,7-hexahydro-s-indacen-4-yl)-5-((3-((methylamino)methyl)pyrrolidin-1-yl)sulfonyl)-4H-1,2,4-triazol-3-amine], the values for the half-inhibitory concentration (IC50) at NLRP3 [1] and on NLRP3 [2] were no more than 1 µM and no more than 500 nM, respectively.

With `CN(C)CCn1ccc(S(=O)(=O)c2nnc(Nc3c4c(cc5c3CCC5)CCC4)[nH]2)n1` [Example 349, 5-((1-(2-(dimethylamino)ethyl)-1H-pyrazol-3-yl)sulfonyl)-N-(1,2,3,5,6,7-hexahydro-s-indacen-4-yl)-4H-1,2,4-triazol-3-amine], the concentration for half-maximal inhibition (IC50) at NLRP3 [1] is no more than 5 µM; at NLRP3 [2] it was no more than 500 nM.

In the case of `O=S(=O)(NCCCN1CCCC1)c1nnc(Nc2c3c(cc4c2CCC4)CCC3)[nH]1` [Example 126, 5-((1,2,3,5,6,7-hexahydro-s-indacen-4-yl)amino)-N-(3-(pyrrolidin-1-yl)propyl)-4H-1,2,4-triazole-3-sulfonamide], the IC50 on NLRP3 [1] is no more than 5 µM; against NLRP3 [2] it was no more than 1000 nM.

For the compound `O=S(=O)(c1nnc(Nc2c3c(cc4c2CCC4)CCC3)[nH]1)N1CC[C@H](CN2CCCC2)C1` [Example 306, (R)—N-(1,2,3,5,6,7-hexahydro-s-indacen-4-yl)-5-((3-(pyrrolidin-1-ylmethyl)pyrrolidin-1-yl)sulfonyl)-4H-1,2,4-triazol-3-amine], the results for the 50% inhibitory concentration (IC50) on NLRP3 [1] and at NLRP3 [2] were no more than 1 µM and no more than 1000 nM, respectively.

With `COc1cc(-c2cc(F)cc(C3CC3)c2Nc2nnc(S(=O)(=O)N3CCC(N(C)C)CC3)[nH]2)ccn1` [Example 301, 1-((5-((2-cyclopropyl-4-fluoro-6-(2-methoxypyridin-4-yl)phenyl)amino)-1H-1,2,4-triazol-3-yl)sulfonyl)-N,N-dimethylpiperidin-4-amine], the figures for the IC50 at NLRP3 [1] and against NLRP3 [2] were no more than 5 µM and no more than 500 nM, respectively.

In the case of `CN1CC2(CC1=O)CN(S(=O)(=O)c1nnc(Nc3c4c(cc5c3CCC5)CCC4)[nH]1)C2` [Example 331, 2-((5-((1,2,3,5,6,7-hexahydro-s-indacen-4-yl)amino)-4H-1,2,4-triazol-3-yl)sulfonyl)-6-methyl-2,6-diazaspiro[3.4]octan-7-one], the figures for the IC50 on NLRP3 [1] and at NLRP3 [2] were no more than 5 µM and no more than 5000 nM, respectively.

For the compound `CN1CCCNC(=O)C12CCN(S(=O)(=O)c1nnc(Nc3c4c(cc5c3CCC5)CCC4)[nH]1)CC2` [Example 294, 3-((5-((1,2,3,5,6,7-hexahydro-s-indacen-4-yl)amino)-4H-1,2,4-triazol-3-yl)sulfonyl)-7-methyl-3,7,11-triazaspiro[5.6]dodecan-12-one], the figures for the half-inhibitory concentration (IC50) at NLRP3 [1] and at NLRP3 [2] were no more than 5 µM and no more than 500 nM, respectively.

In the case of `CN(C)CC1CN(S(=O)(=O)c2nnc(Nc3c4c(cc5c3CCC5)CCC4)[nH]2)C1` [Example 291, 5-((3-((dimethylamino)methyl)azetidin-1-yl)sulfonyl)-N-(1,2,3,5,6,7-hexahydro-s-indacen-4-yl)-4H-1,2,4-triazol-3-amine], the IC50 on NLRP3 [1] is no more than 0.5 µM; against NLRP3 [2], no more than 500 nM.

For `CN(C)C[C@H]1CCN(S(=O)(=O)c2nnc(Nc3c4c(cc5c3CCC5)CCC4)[nH]2)C1` [Example 148, (R)-5-((3-((dimethylamino)methyl)pyrrolidin-1-yl)sulfonyl)-N-(1,2,3,5,6,7-hexahydro-s-indacen-4-yl)-4H-1,2,4-triazol-3-amine], the figures for the IC50 on NLRP3 [1] and against NLRP3 [2] were no more than 0.5 µM and no more than 500 nM, respectively.

Consider `CN1CCCC12CCN(S(=O)(=O)c1nnc(Nc3c(-c4ccnc(OC(F)F)c4)ccc4c3CCO4)[nH]1)CC2` [Example 210, N-(5-(2-(difluoromethoxy)pyridin-4-yl)-2,3-dihydrobenzofuran-4-yl)-5-((1-methyl-1,8-diazaspiro[4.5]decan-8-yl)sulfonyl)-4H-1,2,4-triazol-3-amine], for which the half-inhibitory concentration (IC50) is no more than 5 µM on NLRP3 [1] and no more than 500 nM against NLRP3 [2].

For `O=S(=O)(c1nnc(Nc2c3c(cc4c2CCC4)CCC3)[nH]1)N1CCC(N2CCCC2)C1` (stereo not shown) [Example 104, 5-([1,3′-bipyrrolidin]-1′-ylsulfonyl)-N-(1,2,3,5,6,7-hexahydro-s-indacen-4-yl)-4H-1,2,4-triazol-3-amine], the IC50 at NLRP3 [1] is no more than 5 µM; against NLRP3 [2], no more than 500 nM.

Regarding `CN(C)C[C@@H]1CCN(S(=O)(=O)c2nnc(Nc3c4c(cc5c3CCC5)CCC4)[nH]2)C1` [Example 147, (S)-5-((3-((dimethylamino)methyl)pyrrolidin-1-yl)sulfonyl)-N-(1,2,3,5,6,7-hexahydro-s-indacen-4-yl)-4H-1,2,4-triazol-3-amine], the half-inhibitory concentration (IC50) at NLRP3 [1] was no more than 0.5 µM; against NLRP3 [2], no more than 500 nM.

`CN1CCCC1CNS(=O)(=O)c1nnc(Nc2c3c(cc4c2CCC4)CCC3)[nH]1` (stereo not shown) [Example 95, 5-((1,2,3,5,6,7-hexahydro-s-indacen-4-yl)amino)-N-((1-methylpyrrolidin-2-yl)methyl)-4H-1,2,4-triazole-3-sulfonamide]: the IC50 at NLRP3 [1] was no more than 5 µM; against NLRP3 [2], no more than 1000 nM.

In the case of `CN(C)CCCNS(=O)(=O)c1nnc(Nc2c3c(cc4c2CCC4)CCC3)[nH]1` [Example 125, N-(3-(dimethylamino)propyl)-5-((1,2,3,5,6,7-hexahydro-s-indacen-4-yl)amino)-4H-1,2,4-triazole-3-sulfonamide], the half-inhibitory concentration (IC50) was no more than 5 µM at NLRP3 [1] and no more than 500 nM at NLRP3 [2].

Consider `CCNC[C@H]1CCN(S(=O)(=O)c2nnc(Nc3c4c(cc5c3CCC5)CCC4)[nH]2)C1` [Example 308, (R)-5-((3-((ethylamino)methyl)pyrrolidin-1-yl)sulfonyl)-N-(1,2,3,5,6,7-hexahydro-s-indacen-4-yl)-4H-1,2,4-triazol-3-amine], for which the figures for the IC50 on NLRP3 [1] and against NLRP3 [2] were no more than 5 µM and no more than 500 nM, respectively.

On to `CC(C)(O)C1CCN(S(=O)(=O)c2nnc(Nc3c4c(cc5c3CCC5)CCC4)[nH]2)C1` (stereo not shown) [Example 289, 2-(1-((5-((1,2,3,5,6,7-hexahydro-s-indacen-4-yl)amino)-4H-1,2,4-triazol-3-yl)sulfonyl)pyrrolidin-3-yl)propan-2-ol], for which the results for the IC50 at NLRP3 [1] and against NLRP3 [2] were no more than 5 µM and no more than 1000 nM, respectively.

Take `NS(=O)(=O)c1ccc(S(=O)(=O)c2nnc(Nc3c4c(cc5c3CCC5)CCC4)[nH]2)cc1` [Example 366, 4-((5-((1,2,3,5,6,7-hexahydro-s-indacen-4-yl)amino)-4H-1,2,4-triazol-3-yl)sulfonyl)benzenesulfonamide]: the figures for the half-maximal inhibitory concentration (IC50) at NLRP3 [1] and on NLRP3 [2] were no more than 10 µM and no more than 500 nM, respectively.

For the compound `NS(=O)(=O)c1ccccc1S(=O)(=O)c1nnc(Nc2c3c(cc4c2CCC4)CCC3)[nH]1` [Example 325, 2-((5-((1,2,3,5,6,7-hexahydro-s-indacen-4-yl)amino)-4H-1,2,4-triazol-3-yl)sulfonyl)benzenesulfonamide], the concentration for half-maximal inhibition (IC50) on NLRP3 [1] was no more than 10 µM; on NLRP3 [2] it was no more than 500 nM.

On to `COc1cc(-c2cc(F)cc(C(C)C)c2Nc2nnc(S(=O)(=O)N3CCC(N(C)C)CC3)[nH]2)ccn1` [Example 261, 1-((5-((4-fluoro-2-isopropyl-6-(2-methoxypyridin-4-yl)phenyl)amino)-4H-1,2,4-triazol-3-yl)sulfonyl)-N,N-dimethylpiperidin-4-amine], for which the IC50 is no more than 1 µM on NLRP3 [1] and no more than 500 nM against NLRP3 [2].

For `CN1CCCCC1CNS(=O)(=O)c1nnc(Nc2c3c(cc4c2CCC4)CCC3)[nH]1` (stereo not shown) [Example 141, 5-((1,2,3,5,6,7-hexahydro-s-indacen-4-yl)amino)-N-((1-methylpiperidin-2-yl)methyl)-4H-1,2,4-triazole-3-sulfonamide], the half-inhibitory concentration (IC50) was no more than 10 µM on NLRP3 [1] and no more than 5000 nM against NLRP3 [2].

With `CN(C)Cc1cccc(S(=O)(=O)c2nnc(Nc3c4c(cc5c3CCC5)CCC4)[nH]2)c1` [Example 44, 5-((3-((dimethylamino)methyl)phenyl)sulfonyl)-N-(1,2,3,5,6,7-hexahydro-s-indacen-4-yl)-4H-1,2,4-triazol-3-amine], the 50% inhibitory concentration (IC50) at NLRP3 [1] is no more than 5 µM; against NLRP3 [2] it was no more than 500 nM.

`CC(O)Cn1ccc(S(=O)(=O)c2nnc(Nc3c4c(cc5c3CCC5)CCC4)[nH]2)n1` (stereo not shown) [Example 352, 1-(3-((5-((1,2,3,5,6,7-hexahydro-s-indacen-4-yl)amino)-4H-1,2,4-triazol-3-yl)sulfonyl)-1H-pyrazol-1-yl)propan-2-ol]: the IC50 is no more than 10 µM on NLRP3 [1] and no more than 500 nM on NLRP3 [2].

Source of the values: US20210261512A1, “NOVEL COMPOUNDS” (INFLAZOME LIMITED, priority 2018, published 2021).
